Like-named read-outs stand apart in the source and are kept apart here.

Here are results for one molecule from publication PMC6557200, “Correction: First-in-human phase 1 study of the BTK inhibitor GDC-0853 in relapsed or refractory B-cell NHL and CLL” (Oncotarget, 2019).

The data set in a line: First-in-human phase 1 study: pharmacokinetics parameters of GDC-0853 (plasma) on day 1 and day 15. It counts as in vivo. The settings on record: for AUC(0-inf): read-out: Day 1 AUC0-inf Mean (%CV). The source says:
Table 3 Summary of pharmacokinetics parameters for GDC-0853 on day 1 and day 15 (cohorts 1, 2, and 3, with 100, 200, and 400-mg GDC-0853, respectively) | column: Day 1 T1/2 (hr) Mean (%CV); Day 1 Tmax^a (hr) Median (range); Day 1 Cmax (μM) Mean (%CV); Day 1 AUC0-inf (hr•μM) Mean (%CV); Day 1 AUC0-24 (hr*μM) Mean (%CV); Day 15 Tmax^a(hr) Median (range); Day 15 Cmax (μM) Mean (%CV); Day 15 AUC0- 24 (hr•μM) Mean (%CV); Day 15 Accumulation Ratio Mean (%CV)

On to `C[C@H]1CN(C2COC2)CCN1c1ccc(Nc2cc(-c3ccnc(N4CCn5c(cc6c5CC(C)(C)C6)C4=O)c3CO)cn(C)c2=O)nc1` [GDC-0853], for which the “Day 15 Accumulation Ratio Mean (%CV)” value reads like this: (100 mg (n = 6), cohort 1, day 15) 1.78 (58.4); (200 mg (n = 9), cohort 2, day 15) 1.44 (77.9); (400 mg (n = 9), cohort 3, day 15) 1.91 (102). In addition, the Cmax (human, plasma, 100 mg, 100 mg (n = 6), cohort 1, day 1, plasma, read-out: Day 1 Cmax Mean (%CV)) stood at 119 nM; the Cmax (human, plasma, 200 mg, 200 mg (n = 9), cohort 2, day 1, plasma, read-out: Day 1 Cmax Mean (%CV)) was determined as 571 nM; the peak concentration (Cmax) (human, plasma, 200 mg, 200 mg (n = 9), cohort 2, day 15, plasma, read-out: Day 15 Cmax Mean (%CV)) is 614 nM; the highest concentration (Cmax) (human, plasma, 400 mg, 400 mg (n = 9), cohort 3, day 1, plasma, read-out: Day 1 Cmax Mean (%CV)) was found to be 1440 nM; the Cmax (human, plasma, 400 mg, 400 mg (n = 9), cohort 3, day 15, plasma, read-out: Day 15 Cmax Mean (%CV)) was determined as 1390 nM. Besides, the AUC(0-t) runs as follows: (human, plasma, 100 mg, 100 mg (n = 6), cohort 1, day 1, read-out: Day 1 AUC0-24 Mean (%CV)) 0.67 µM·h; (human, plasma, 100 mg, 100 mg (n = 6), cohort 1, day 15, read-out: Day 15 AUC0-24 Mean (%CV)) 1.2 µM·h; (human, plasma, 200 mg, 200 mg (n = 9), cohort 2, day 1, read-out: Day 1 AUC0-24 Mean (%CV)) 2.54 µM·h; (human, plasma, 200 mg, 200 mg (n = 9), cohort 2, day 15, read-out: Day 15 AUC0-24 Mean (%CV)) 2.83 µM·h; (human, plasma, 400 mg, 400 mg (n = 9), cohort 3, day 1, read-out: Day 1 AUC0-24 Mean (%CV)) 6.95 µM·h; (human, plasma, 400 mg, 400 mg (n = 9), cohort 3, day 15, read-out: Day 15 AUC0-24 Mean (%CV)) 7.74 µM·h. Moreover, the AUC(0-inf) by setting is: (human, plasma, 100 mg (n = 6), cohort 1, day 1) 0.861 µM·h; (human, plasma, 200 mg (n = 9), cohort 2, day 1) 3.42 µM·h; (human, plasma, 400 mg (n = 9), cohort 3, day 1) 7.57 µM·h. The time to peak (Tmax) (human, plasma, 200 mg (n = 9), cohort 2, day 15, read-out: Day 15 Tmax Median (range)) was 2.1 h.

In general, Cmax refers to the maximum level reached in the sampled fluid or tissue. What is called Tmax is the time from dosing to the highest level.
